Reference: publication PMC9400670, “Establishing the selective phospholipid membrane coordination, permeation and lysis properties for a series of ‘druggable’ supramolecular self-associating antimicrobial amphiphiles” (Chemical Science, 2022)

How the values were obtained:
[1] = test system: calcein loaded phospholipid vesicles (PC, PG, PE-PG mix, E. coli total, E. coli polar); assay: Synthetic phospholipid vesicle lysis (calcein leakage) assay; settings: SSA titration; concentrations ≤0.5 mM; after 15 min; in words
[2] = test system: phospholipid vesicles (PC, PG, PE-PG mix, E. coli total, E. coli polar); assay: Vesicle membrane binding assay (FP), comparison across the five vesicle types; settings: SSA 0.15 mM, in words
Text: For intrinsically fluorescent SSAs 5, 6 and 8–12, FP titration experiments enabled the observation of SSA: phospholipid vesicle interactions. Here, an increase in FP value indicates an increase in the apparent size of the SSA as it interacts with the phospholipid vesicle.
The results of these studies have been summarised for convenience in Table 3 however, specific SSA: phospholipid vesicle interactions are also exemplified within Fig. 8. […] Here phospholipid vesicle selectivity appears to be driven by the presence of a methyl substituent appended from the benzothiazole unit, in addition to a urea-methyl/ethyl spacer-anionic functionality. Interesting the presence of the thiourea group, increasing SSA […] and increasing hydrogen bond donor acidity, while increasing the levels of vesicle interaction overall, decreased any specific SSA selectivity. […]
Fluorescence polarisation: Lipid films were resuspended in Buffer (150 mM KCl, 10 mM HEPES, pH 7.4, 2 mM EGTA) and subjected to 9 freeze-thaw cycles in liquid nitrogen and extruded 20 times through a 200 nm polycarbonate membrane. Black bottom 96-well plates were prepared by serially diluting desired vesicle solution across the plate, the appropriate SSA solution (100 µL, 0.15 mM) was added to each well to give a total well volume of 200 µL. Fluorescent SSA solutions were set to a FP value of 100 mP. Data were acquired in endpoint mode. […]
1H NMR CPMG: 1H NMR CPMG3,4 spectra were obtained with a Bruker Avance III […] spectrometer equipped with a TCIP cryoprobe at 298 K. Samples were supplemented with 5 % D 2O and 0.02 mM 4,4-dimethyl4-silapentane-1-sulfonic acid (DSS). […]
The P1 pulses were 9 µs at a power of 7.9 W. Presaturation was applied between acquisitions for 100 ms at a power level of 280 mW and acquisition was carried out of 85 2 µs. Water […]
180 o pulses of 1 ms. Repetition times were chosen to achieve suitable water suppression with the presat and watergate sequences used in 95 % H2O solution. The length of the CPMG element was chosen to achieve good differentiation between unbound and strongly bound ligands. Data was collected with 16,384 points and a spectral width of 16.0242 ppm, receiver gain was set to 128, with 512 scans, 8 dummy scans and an acquisition time of 0.85 s. Data was processed using MestreNova software. All spectra were automatically phased, baselined corrected using a polynomial function and calibrated to the centre of the DSS peak.
Fitting of 1H NMR CPMG data: The data was fit to Michaelis Menten and Hill plot models and compared through R2 analysis using Origin 2022 software,5 growth/sigmoidal category, Hill/MichaelisMenten function, Levenberg Marquardt iteration algorithm. Vmax fixed to 100 % as this was the greatest proportion of SSA that could be coordinated to the nanodiscs. […]

[3] = Critical micelle concentration from surface tension measurements (pendant drop); assay type: physicochemical; settings: 19 : 1 H2O : EtOH solution at 298 K
Text: Section 2: General Methods
General remarks: A positive pressure of nitrogen and oven dried glassware were used for all reactions.
All solvents and starting materials were purchased from known chemical suppliers or available stores and used without any further purification unless specifically stipulated. The NMR spectra were obtained using a Burker AV2 400 MHz, AVNEO 400 MHz or Avance III […] spectrometer. The data was processed using ACD Labs or MestreNova software. NMR Chemical shift values are reported in parts per million (ppm) and calibrated to the centre of the residual solvent peak set (s = singlet, br = broad, d = doublet, t = triplet, q = quartet, m = multiplet). Fluorescence and fluorescence polarisation measurements were conducted using a Clariostar plate reader and analysed using MARS data analysis […]
Tensiometry Studies: All the samples were prepared in an EtOH:H2O (1:19) solution. All samples underwent an annealing process in which the various solutions were heated to approximately 40 °C before being allowed to cool to room temperature, allowing each sample to reach a thermodynamic minimum. All samples were prepared through serial dilution of the most concentrated sample. Three surface tension measurements were obtained for each sample at a given concentration, using the […]
pendant drop method. […]
Data

## O=C(NCS(=O)(=O)O)Nc1ccccc1-c1nc2ccccc2s1 [SSA 5]
[1]
  vesicle lysis PG over PC: enhanced levels of vesicle lysis against PG

## Cc1ccc2nc(-c3ccc(NC(=O)NCS(=O)(=O)O)cc3)sc2c1 [SSA 6]
[1]
  vesicle lysis PG over PC: enhanced levels of vesicle lysis against PG
[2]
  SSA: phospholipid vesicle interaction / selectivity (FP titration): limited selectivity with a preference for PC, PG and E. coli polar over the E. coli total and PG : PE mix

## O=C(NCS(=O)(=O)O)Nc1ccc(-c2nc3ccccc3s2)cc1 [SSA 8]
[3]; unit printed in Figs S37-S40, not in Table 3, listed as 8
  CMC: 5.2 mM
[3]; unit printed in Figs S37-S40, not in Table 3, listed as compound 8
  CMC: 5.16 mM
[1]
  vesicle lysis PG over PC: enhanced levels of vesicle lysis against PG
[2]
  SSA: phospholipid vesicle interaction / selectivity (FP titration): little selectivity for different phospholipid membranes

## Cc1ccc2nc(-c3ccc(NC(=O)NCCC(=O)O)cc3)sc2c1 [SSA 9]
[3]; unit printed in Figs S37-S40, not in Table 3, listed as 9
  CMC: 1.9 mM
[3]; unit printed in Figs S37-S40, not in Table 3, listed as compound 9
  CMC: 1.92 mM

## Cc1ccc2nc(-c3ccc(NC(=O)NCCCS(=O)(=O)O)cc3)sc2c1 [SSA 10]
[3]; unit printed in Figs S37-S40, not in Table 3, listed as 10
  CMC: 14.8 mM
[3]; unit printed in Figs S37-S40, not in Table 3, listed as compound 10
  CMC: 14.77 mM
[2]
  SSA: phospholipid vesicle interaction / selectivity (FP titration): little selectivity for different phospholipid membranes

## Cc1ccc2nc(-c3ccc(NC(=O)NCC(=O)O)cc3)sc2c1 [SSA 11]
[3]; unit printed in Figs S37-S40, not in Table 3, listed as 11
  CMC: 3.0 mM
[3]; unit printed in Figs S37-S40, not in Table 3, listed as compound 11
  CMC: 3.03 mM

## Cc1ccc2nc(-c3ccc(NC(=S)NCS(=O)(=O)O)cc3)sc2c1 [SSA 12]
[3]; unit given in Figs S37-S40, not in Table 3
  CMC: 4.6 mM
[2]
  SSA: phospholipid vesicle interaction / selectivity (FP titration): strong interaction with all phospholipid vesicles tested
